Literature values, collected in EP1110914A2, “Water treatment method and apparatus” (ROHM AND HAAS COMPANY, priority 1999, dated 2001).
Read-outs that look alike come from different tables or passages of the source.

Details: in water

CO2 Conc @ 15° C (pressure 101 kPa (1 bar)): 2,523 ppm
CO2 Conc @ 15° C (pressure 507 kPa (5 bar)): 12,613 ppm
CO2 Conc @ 15° C (pressure 931 kPa (9.2 bar)): 23,207 ppm
CO2 Conc @ 20° C (pressure 101 kPa (1 bar)): 2,174 ppm
CO2 Conc @ 20° C (pressure 507 kPa (5 bar)): 10,868 ppm
CO2 Conc @ 20° C (pressure 931 kPa (9.2 bar)): 19,996 ppm
CO2 Conc @ 25° C (pressure 101 kPa (1 bar)): 1,876 ppm
CO2 Conc @ 25° C (pressure 507 kPa (5 bar)): 9,381 ppm
CO2 Conc @ 25° C (pressure 931 kPa (9.2 bar)): 17,261 ppm
Compound: O=C=O [CO2, carbon dioxide]
